# Patent US20190030018A1 (Celgene Corporation, priority 2017, published 2019)
# Test system: 563 solid tumor cell lines
# Assay: Luminex assay in PRISM, 5 days treatment (AUC)
# Format: cell-based
# Parameters: AUC: scale not given here
# Method: The AUC values provided in Table 80 below were calculated based on the Median Fluorescent Intensity values, the primary read out of the Luminex assay in PRISM. The following parameters were used in this assay: • 8 point dose was used in triplicate • max concentration of 10 μM was used with serial 4-fold dilutions (low of […]) • 563 adherent cell lines in 23 pools. • treatment duration was 5 days.
structure (smiles),measurement,setting,value
"O=C1CCC(N2Cc3cc(CNC(=O)C(F)(F)c4ccc(Cl)cc4)ccc3C2=O)C(=O)N1 (centres unmarked) [Compound 1, 2-(4-chlorophenyl)-N-((2-(2,6-dioxopiperidin-3-yl)-1-oxoisoindolin-5-yl)methyl)-2,2-difluoroacetamide]",activity on solid tumor cell lines (AUC),"8 point dose, max 10 μM, 5 days","highest activity on lung, intestine, stomach, liver, pancreatic and kidney cell lines"
same,AUC,A101D_SKIN,0.821
same,AUC,A172_CENTRAL_NERVOUS_SYSTEM,0.314
same,AUC,A204_SOFT_TISSUE,0.156
same,AUC,A253_SALIVARY_GLAND,0.864
same,AUC,A375_SKIN,0.795
same,AUC,A498_KIDNEY,0.845
same,AUC,A549_LUNG,0.857
same,AUC,A673_BONE,0.885
same,AUC,A704_KIDNEY,0.823
same,AUC,A2058_SKIN,0.818
same,AUC,A2780_OVARY,0.485
same,AUC,ABC1_LUNG,0.591
same,AUC,ACCMESO1_PLEURA,0.631
same,AUC,ACHN_KIDNEY,0.912
same,AUC,AGS_STOMACH,0.865
same,AUC,AM38_CENTRAL_NERVOUS_SYSTEM,0.543
same,AUC,AN3CA_ENDOMETRIUM,0.861
same,AUC,BCPAP_THYROID,0.782
same,AUC,BECKER_CENTRAL_NERVOUS_SYSTEM,0.874
same,AUC,BEN_LUNG,0.826
same,AUC,BFTC909_KIDNEY,0.843
same,AUC,BHT101_THYROID,0.858
same,AUC,BHY_UPPER_AERODIGESTIVE_TRACT,0.405
same,AUC,BICR6_UPPER_AERODIGESTIVE_TRACT,0.801
same,AUC,BICR16_UPPER_AERODIGESTIVE_TRACT,0.585
same,AUC,BICR18_UPPER_AERODIGESTIVE_TRACT,0.845
same,AUC,BICR56_UPPER_AERODIGESTIVE_TRACT,0.984
same,AUC,BT474_BREAST,0.801
same,AUC,BT549_BREAST,0.242
same,AUC,BXPC3_PANCREAS,0.916
same,AUC,C32_SKIN,0.881
same,AUC,CADOES1_BONE,0.566
same,AUC,CAKI2_KIDNEY,0.867
same,AUC,CAL12T_LUNG,0.366
same,AUC,CAL27_UPPER_AERODIGESTIVE_TRACT,0.812
same,AUC,CAL29_URINARY_TRACT,0.831
same,AUC,CAL51_BREAST,0.589
same,AUC,CAL54_KIDNEY,0.679
same,AUC,CAL62_THYROID,0.083
same,AUC,CAL78_BONE,0.798
same,AUC,CAL120_BREAST,0.812
same,AUC,CALU6_LUNG,0.794
same,AUC,CAMA1_BREAST,0.589
same,AUC,CAPAN2_PANCREAS,0.835
same,AUC,CBAGPN_BONE,0.236
same,AUC,CCK81_LARGE_INTESTINE,0.021
same,AUC,CFPAC1_PANCREAS,0.872
same,AUC,CHL1_SKIN,0.330
same,AUC,CHLA10_BONE,0.933
same,AUC,CJM_SKIN,0.215
same,AUC,CL11_LARGE_INTESTINE,0.849
same,AUC,CL34_LARGE_INTESTINE,0.604
same,AUC,COLO678_LARGE_INTESTINE,0.811
same,AUC,COLO679_SKIN,0.830
same,AUC,COLO680N_OESOPHAGUS,0.863
same,AUC,COLO741_SKIN,0.411
same,AUC,COLO792_SKIN,0.629
same,AUC,COLO800_SKIN,0.810
same,AUC,COLO829_SKIN,0.748
same,AUC,CORL23_LUNG,0.879
same,AUC,CORL105_LUNG,0.824
same,AUC,COV318_OVARY,0.883
same,AUC,COV362_OVARY,0.824
same,AUC,COV644_OVARY,0.994
same,AUC,DANG_PANCREAS,0.793
same,AUC,DAOY_CENTRAL_NERVOUS_SYSTEM,0.928
same,AUC,DBTRG05MG_CENTRAL_NERVOUS_SYSTEM,0.795
same,AUC,DETROIT562_UPPER_AERODIGESTIVE_TRACT,0.855
same,AUC,DMS53_LUNG,0.903
same,AUC,DMS273_LUNG,0.771
same,AUC,DU145_PROSTATE,0.878
same,AUC,DV90_LUNG,0.174
same,AUC,EBC1_LUNG,0.960
same,AUC,ECGI10_OESOPHAGUS,0.877
same,AUC,EFE184_ENDOMETRIUM,0.679
same,AUC,EFM19_BREAST,0.917
same,AUC,EFM192A_BREAST,0.766
same,AUC,EFO21_OVARY,0.843
same,AUC,EFO27_OVARY,0.534
same,AUC,EKVX_LUNG,0.837
same,AUC,EN_ENDOMETRIUM,0.831
same,AUC,ES2_OVARY,0.801
same,AUC,ESS1_ENDOMETRIUM,0.512
same,AUC,EW8_BONE,0.985
same,AUC,EWS502_BONE,0.875
same,AUC,FADU_UPPER_AERODIGESTIVE_TRACT,0.859
same,AUC,FTC133_THYROID,0.833
same,AUC,FTC238_THYROID,0.8424
same,AUC,G292CLONEA141B1_BONE,0.2746
same,AUC,G402_SOFT_TISSUE,0.8297
same,AUC,GAMG_CENTRAL_NERVOUS_SYSTEM,0.365
same,AUC,GB1_CENTRAL_NERVOUS_SYSTEM,0.8359
same,AUC,GCIY_STOMACH,0.8662
same,AUC,GI1_CENTRAL_NERVOUS_SYSTEM,0.5874
same,AUC,GMS10_CENTRAL_NERVOUS_SYSTEM,0.4048
same,AUC,GOS3_CENTRAL_NERVOUS_SYSTEM,0.5047
same,AUC,GP2D_LARGE_INTESTINE,0.796
same,AUC,HARA_LUNG,0.7964
same,AUC,HCC15_LUNG,0.9583
same,AUC,HCC38_BREAST,0.4873
same,AUC,HCC44_LUNG,0.906
same,AUC,HCC56_LARGE_INTESTINE,0.849
same,AUC,HCC78_LUNG,0.793
same,AUC,HCC366_LUNG,0.3183
same,AUC,HCC827_LUNG,0.516
same,AUC,HCC1143_BREAST,0.8133
same,AUC,HCC1195_LUNG,0.9004
same,AUC,HCC1359_LUNG,0.875
same,AUC,HCC1395_BREAST,0.9508
same,AUC,HCC1419_BREAST,0.8487
same,AUC,HCC1428_BREAST,0.9167
same,AUC,HCC1438_LUNG,0.9701
same,AUC,HCC1806_BREAST,0.8775
same,AUC,HCC1937_BREAST,0.579
same,AUC,HCC1954_BREAST,0.8107
same,AUC,HCC4006_LUNG,0.8403
same,AUC,HCT15_LARGE_INTESTINE,0.554
same,AUC,HCT116_LARGE_INTESTINE,0.826
same,AUC,HDQP1_BREAST,0.825
same,AUC,HEC1A_ENDOMETRIUM,0.832
same,AUC,HEC6_ENDOMETRIUM,0.858
same,AUC,HEC59_ENDOMETRIUM,0.794
same,AUC,HEC108_ENDOMETRIUM,0.812
same,AUC,HEC151_ENDOMETRIUM,0.903
same,AUC,HEC251_ENDOMETRIUM,0.698
same,AUC,HEC265_ENDOMETRIUM,0.831
same,AUC,HEP3B217_LIVER,0.596
same,AUC,HEPG2_LIVER,0.511
same,AUC,HGC27_STOMACH,0.846
same,AUC,HLF_LIVER,0.952
same,AUC,HMC18_BREAST,0.847
same,AUC,HOS_BONE,0.854
same,AUC,HS294T_SKIN,0.883
same,AUC,HS729_SOFT_TISSUE,0.598
same,AUC,HS746T_STOMACH,0.428
same,AUC,HS766T_PANCREAS,0.830
same,AUC,HS852T_SKIN,0.710
same,AUC,HS939T_SKIN,0.836
same,AUC,HS944T_SKIN,0.719
same,AUC,HSC2_UPPER_AERODIGESTIVE_TRACT,0.597
same,AUC,HSC3_UPPER_AERODIGESTIVE_TRACT,0.834
same,AUC,HT29_LARGE_INTESTINE,0.546
same,AUC,HT55_LARGE_INTESTINE,0.571
same,AUC,HT144_SKIN,0.641
same,AUC,HT1376_URINARY_TRACT,0.900
same,AUC,HUCCT1_BILIARY_TRACT,0.533
same,AUC,HUH1_LIVER,0.508
same,AUC,HUH6_LIVER,0.867
same,AUC,HUH28_BILIARY_TRACT,0.267
same,AUC,HUPT3_PANCREAS,0.876
same,AUC,HUPT4_PANCREAS,0.5948
same,AUC,IALM_LUNG,0.2481
same,AUC,IGR37_SKIN,0.8495
same,AUC,IGROV1_OVARY,0.6978
same,AUC,IM95_STOMACH,0.111
same,AUC,IPC298_SKIN,0.894
same,AUC,ISHIKAWAHERAKLIO02ER_ENDOMETRIUM,0.8402
same,AUC,ISTMES1_PLEURA,0.1381
same,AUC,ISTMES2_PLEURA,0.8192
same,AUC,J82_URINARY_TRACT,0.8263
same,AUC,JHH1_LIVER,0.469
same,AUC,JHH4_LIVER,0.680
same,AUC,JHH5_LIVER,0.806
same,AUC,JHH6_LIVER,0.449
same,AUC,JHH7_LIVER,0.778
same,AUC,JHOC5_OVARY,0.865
same,AUC,JHOM1_OVARY,0.833
same,AUC,JHOS2_OVARY,0.566
same,AUC,JHUEM2_ENDOMETRIUM,0.761
same,AUC,JIMT1_BREAST,0.816
same,AUC,JL1_PLEURA,0.591
same,AUC,JMSU1_URINARY_TRACT,0.842
same,AUC,K029AX_SKIN,0.834
same,AUC,KALS1_CENTRAL_NERVOUS_SYSTEM,0.838
same,AUC,KE39_STOMACH,0.521
same,AUC,KELLY_AUTONOMIC_GANGLIA,0.591
same,AUC,KMBC2_URINARY_TRACT,0.913
same,AUC,KMRC1_KIDNEY,0.842
same,AUC,KMRC3_KIDNEY,0.990
same,AUC,KMRC20_KIDNEY,0.951
same,AUC,KNS42_CENTRAL_NERVOUS_SYSTEM,0.826
same,AUC,KNS60_CENTRAL_NERVOUS_SYSTEM,0.795
same,AUC,KNS62_LUNG,0.842
same,AUC,KNS81_CENTRAL_NERVOUS_SYSTEM,0.808
same,AUC,KP2_PANCREAS,0.767
same,AUC,KP3_PANCREAS,0.592
same,AUC,KP4_PANCREAS,0.447
same,AUC,KPL1_BREAST,0.890
same,AUC,KPNYN_AUTONOMIC_GANGLIA,0.648
same,AUC,KU1919_URINARY_TRACT,0.926
same,AUC,KURAMOCHI_OVARY,0.857
same,AUC,KYSE70_OESOPHAGUS,0.788
same,AUC,KYSE140_OESOPHAGUS,0.883
same,AUC,KYSE150_OESOPHAGUS,0.863
same,AUC,KYSE180_OESOPHAGUS,0.865
same,AUC,KYSE270_OESOPHAGUS,0.835
same,AUC,KYSE510_OESOPHAGUS,0.870
same,AUC,KYSE520_OESOPHAGUS,0.887
same,AUC,LC1SQSF_LUNG,0.936
same,AUC,LI7_LIVER,0.811
same,AUC,LK2_LUNG,0.768
same,AUC,LN229_CENTRAL_NERVOUS_SYSTEM,0.758
same,AUC,LNCAPCLONEFGC_PROSTATE,0.672
same,AUC,LOXIMVI_SKIN,0.905
same,AUC,LS180_LARGE_INTESTINE,0.142
same,AUC,LS411N_LARGE_INTESTINE,0.811
same,AUC,LS513_LARGE_INTESTINE,0.235
same,AUC,LS1034_LARGE_INTESTINE,0.223
same,AUC,LU99_LUNG,0.421
same,AUC,LXF289_LUNG,0.858
same,AUC,MALME3M_SKIN,0.180
same,AUC,MCAS_OVARY,0.845
same,AUC,MCF7_BREAST,0.831
same,AUC,MDAMB175VII_BREAST,0.524
same,AUC,MDAMB231_BREAST,0.278
same,AUC,MDAMB435S_SKIN,0.845
same,AUC,MELHO_SKIN,0.907
same,AUC,MELJUSO_SKIN,0.845
same,AUC,MEWO_SKIN,0.267
same,AUC,MFE280_ENDOMETRIUM,0.881
same,AUC,MFE296_ENDOMETRIUM,0.824
same,AUC,MFE319_ENDOMETRIUM,0.751
same,AUC,MG63_BONE,0.968
same,AUC,MHHES1_BONE,0.984
same,AUC,MIAPACA2_PANCREAS,0.866
same,AUC,MKN1_STOMACH,0.871
same,AUC,MKN7_STOMACH,0.841
same,AUC,MKN45_STOMACH,0.338
same,AUC,MKN74_STOMACH,0.883
